Data reported in a melting point compilation (Tetko et al.; mined from patent text by program, amines drawn as free bases though some values may be those of a salt).

melting point	SMILES
159 to 160 °C	Cc1ccc2c(c1)/C(=N\NC(=O)NCc1ccccc1)C(=O)N2CCN(C(C)C)C(C)C
224 to 227 °C	COc1ccccc1-c1cc(O)c(-c2ccccc2C(=O)O)nn1
187 to 190 °C	O=C(NC(=O)c1ccccc1)NC1CCC(=O)c2sccc21 (configuration not stated)
173 to 174 °C	Cc1nc(N2CCN(Cc3ccc(F)cc3)C2=O)sc1C(=O)NCc1ccc(C(F)F)o1
107 to 109 °C	C=C(c1cc(F)ccc1OCCCC)n1ccnc1
159 to 166 °C	NC(=CC(=O)C1CC1)c1ccncc1
40 to 42 °C	C=CCc1cc(C(C)=O)c(OC)cc1OCCCCC#N
194 to 197 °C	N#Cc1ccccc1Cn1ccc(OCc2ccc(F)cc2F)c(Br)c1=O
282 to 292 °C	COc1cc(C)cc2c(=O)oc3c(c12)C(=O)c1cccc(O)c1C3=O
75 to 76 °C	C=C(F)C(C)(C)C(=O)Nc1ccc(Cl)cc1
143 to 145 °C	COC(=O)Cn1c(C(=O)Nc2nc(-c3cc(OC)c(Cl)cc3OC)c(CC3CCCCC3)s2)cc2cc(C)cc(C)c21
157 °C	Cc1cc(-c2cccc([N+](=O)[O-])c2)c2ccccc2n1
152 to 154 °C	COC=C(C(=O)OC)N(C)c1ccnc(-c2ccccc2)n1
117 to 119 °C	O=C(CN1C(=O)C2(COc3cc4c(cc32)OCCO4)c2ccccc21)Nc1ccccc1F (configuration not stated)
212 °C	CCCCc1ncc2ccccc2c1Cc1ccc(C(=O)O)cc1
160 to 161 °C	N#Cc1cc(C(F)(F)F)ccc1Nc1ccccc1[N+](=O)[O-]
105 to 107 °C	Cc1ccsc1C(=O)Cc1ccc(Cl)cc1[N+](=O)[O-]
114 to 116 °C	O=C1N(Cc2nsc(Cl)n2)c2ccccc2C12COc1cc3c(cc12)OCO3 (configuration not stated)
104 to 108 °C	CNC(=O)[C@H](Cc1ccc(OC)cc1)NC(=O)[C@H](CC(C)C)N[C@H](CCC(=O)NCc1ccccc1)C(=O)O
119 to 120 °C	Cc1oc(-c2ccccc2)nc1COc1ccc(COc2ncccc2C#N)cc1
188 to 189 °C	CCCn1nc(-c2cnc(N)nc2-c2ccccc2)ccc1=O
289 to 290 °C	COc1ccc(-c2ccc3n[nH]c(=O)n3n2)cc1F
80 to 85 °C	Cc1cc(C)c(C2C(=O)N(N(C)C)C3(CCN(N(C)C)CC3)C2=O)c(C)c1 (configuration not stated)
53 to 57 °C	CC(C)OP(=O)(CC1(C(=O)O)CCCC1)OC(C)C

melting point	SMILES
168 to 170 °C	CCCCc1nc2c(N)nc3ccccc3c2n1CCOc1ccccc1
120 to 121 °C	CCOC(=O)/C=C/c1cn(Cc2ccc(OCc3nc(-c4ccccc4)oc3C)cc2)cc1-c1ccccc1
152 to 155 °C	CCCCc1nc2c(c(=O)[nH]1)CN(C(=O)OCC[Si](C)(C)C)CC2
> 280 °C	Cn1ncc(C(=O)N2CCC2)c1C(=O)Nc1ccn2nc(-c3ccnc(F)c3)nc2c1
150 to 175 °C	NC(=O)N1C(=O)C(=C(OC(=O)COCc2ccccc2)c2cccs2)c2cc(F)c(Cl)cc21
74 to 76 °C	CSc1nccc(C(=O)C(=O)c2ccc(F)cc2)n1
110 to 115 °C	CCCc1ccc2c(c1)C(=O)N(c1ccc(C(C)C(=O)OC(C)(C)C)cc1)C2 (configuration not stated)
120 °C	C#CCn1cc(C=O)c([N+](=O)[O-])c1
148 to 149 °C	COc1cc(Oc2ccc(S(C)(=O)=O)nc2)cc2cc(C3=NCC(CC(=O)N4CCOCC4)S3)[nH]c12 (configuration not stated)
194 °C	COc1ccc2c(c1)C(NC(C)C)=C(C(N)=O)S2=O (configuration not stated)
68 to 71 °C	C[C@H]1[C@H](OS(C)(=O)=O)CN1C(c1ccccc1)c1ccccc1 (relative stereo)
112 to 113 °C	N#CNC(=NC1CCCC1)Nc1cccc(C(F)(F)F)c1
> 245 °C	CN1CCN(Cn2cncc2-c2cc3c(Nc4ccc5[nH]ccc5c4)c(C#N)cnc3s2)CC1
246 to 247 °C	NC(=O)C(=O)Nc1nc(-c2cc(-c3ccccc3)on2)cs1
157 °C	COc1cc2c(cc1OC)C(C(C#N)SCCOC(C)=O)=NCC2 (configuration not stated)
134 °C	O=C(NC1CCCCC1)c1ccc(F)c2c1CC(N(CCCc1c[nH]c3ccc(F)cc13)C1CCC1)CO2 (configuration not stated)
218 °C	Cc1cccc(-c2nc3ccc(O)cc3n2Cc2ccccc2Br)c1
142 to 143 °C	N#Cc1cnc(Nc2ccc(CCO)cc2)nc1-c1ccccc1
141 to 143 °C	O=C1C(=O)N(Cc2ccc(Br)cc2F)c2c1cccc2C(F)(F)F
> 400 °C	O=C1N=c2cc(Cl)c(Cl)cc2=NC1=O
85 °C	CNCCCNC(=O)[C@@H]1CCCN1S(=O)(=O)c1ccc(Cl)c(COc2cccc3c(C)cc(C)nc23)c1Cl
91 to 93 °C	COc1cc(N)c(Cl)cc1C(=O)NCCNCc1ccc(CN(C)C)o1
87 to 88 °C	Nc1nonc1NCCCOc1cccc(CN2CCCCC2)c1
224 to 227 °C	N#Cc1ccnc(OCc2nc3cc(Cl)ccc3s2)c1

melting point	SMILES
230 to 233 °C	N#Cc1cccnc1CC1COc2cc3c(cc2O1)OCC31C(=O)Cc2ccccc21 (configuration not stated)
205 to 206 °C	CC(=O)c1ccc2c(c1)ncn2-c1cccc(-n2ccnc2)c1
108 to 114 °C	O=C1CCC(O)(c2ccc(F)cc2)CC1
112 to 113 °C	CC(C)(C)OC(=O)Nc1ccc(F)nc1
106 to 110 °C	CCOC(=O)/C=C/c1ccc(Cl)nn1
161 to 170 °C	O=C(O)c1cc(=O)c(OCc2ccccc2)c(-c2ccccc2)o1
198 to 201 °C	Nc1nonc1-c1nc2ccccc2n1CC(=NO)c1ccc(Br)cc1
136 °C	CC[Si](CC)(CC)c1ccccc1S(=O)(=O)NC(=O)Nc1nc(OC)cc(OC)n1
58 to 60 °C	CCC1(CC)CN(C(C)(C)C)C(=O)C(CC)(CC)N1OC(=O)C(C)(C)C
161 to 165 °C	CN(C)c1ccc(C2N(c3ccccc3)CCN2c2ccccc2)c(O)c1
296 to 299 °C	COc1nc(C)c(N2CCCn3c2nc2cccc(C(O)C(F)(F)F)c23)c(C)n1 (configuration not stated)
127 to 129 °C	CC(Cc1cc(F)cc2c(Cl)coc12)NC(=O)OC(C)(C)C (configuration not stated)
241 to 244 °C	CC1(C)CCC(C)(C)c2cc(-c3cc(-c4ccc(C(=O)O)cc4)ccc3OCc3ccccc3)ccc21
115 °C	COc1ccc(C(=O)Nc2ccc3ccc(OC)nc3n2)cc1
134 to 137 °C	CCCCOC(=O)c1nn(-c2ccc(I)cc2)c(C)cc1=O
140 to 141 °C	COc1cc(NC(=O)N(O)C(C)C)cc(OC)c1OC
47 to 48 °C	CCCc1c(OCCCCCBr)ccc2c1OCCC2=O
56 to 58 °C	Cc1cc(C(=O)OC(C)(C)C)ccc1[N+](=O)[O-]
93 to 95 °C	CC(Cc1ccc(OCc2ccccc2)cc1)C(=O)O (configuration not stated)
233 to 235 °C	Cn1nc(Cl)cc(Nc2ccncn2)c1=O
166 to 167 °C	COc1cccc(C2c3c(C)c(NC(=O)CC(C)(C)C)c(C)c(C)c3OC2(C)C)c1 (configuration not stated)
173 to 175 °C	Cc1cc(C(=O)N2Cc3cccn3Cc3ccccc32)ccc1C1=CCCCC1
157 to 161 °C	O=C(Cc1cccc([N+](=O)[O-])c1)c1c(O)c2cccnc2n(-c2ccccc2)c1=O
235 to 236 °C	COC(=O)C=Cc1c(C(=O)OC)c2c(n1C)C(=O)C=C(OC)C2=O

melting point	SMILES
156 to 158 °C	O=C1NCCCc2cc(CCCl)sc21
67 to 68 °C	CCCC=Cc1c(C(C)C)nc(C(C)C)c(C(=O)OCC)c1-c1ccc(CC)cc1
196 to 200 °C	CCCc1nc2c(N)nc3cc(OCCC4CCN(C(=O)OC(C)(C)C)CC4)ccc3c2n1CC(C)C
78 to 80 °C	Nc1cc(Br)cc(Br)c1N
181 to 183 °C	COc1cc(N)c(N)cc1C(N)=O
222 to 223 °C	COc1cc(CNc2c(NC(C)(C)C)c(=O)c2=O)cc(OC)c1
> 300 °C	Cc1c(C(=O)O)sc2ccc(Br)cc12
50 to 52 °C	COC(=O)CCCc1cc2cc(Cl)ccc2n1S(=O)(=O)c1ccc2c(c1)CN(C(C)=O)CC2
82 °C	C=C(Cc1ccccc1)C(=O)NCC(=O)O
197 to 199 °C	CC(=O)NC[C@H]1CN(c2ccc(-c3ncon3)c(F)c2)C(=O)O1
151 to 152 °C	CCOc1ccc(-c2noc3c(Cl)c(OC)ccc23)c(F)c1
105 to 107 °C	Cc1oc(-c2ccccc2)nc1CC#Cc1ccc(CC(C(=O)O)c2cccc(-c3ccccc3)c2)cc1 (configuration not stated)
109 to 111 °C	CC(=O)NC(C)c1ccc(CN2CCN(c3ccc(F)cc3F)CC2)cc1 (configuration not stated)
224 to 226 °C	CCOC(=O)c1cc2c3n(ccc-2n1)C(Br)C(C)=N3 (configuration not stated)
63 °C	O=C(O)C(=O)c1ccsc1
270 to 275 °C	O=c1[nH]c(-c2ccc(C(F)(F)F)cc2C(F)(F)F)nn1-c1cc(Cl)ccc1O
149 to 151 °C	CCCN1C(=O)C2CC(c3ccc([N+](=O)[O-])cc3)(C2)C1=O
191 to 192 °C	N#CCCNC(=O)c1cccc(-c2cccc3nn(Cc4ccc(F)c(F)c4)cc23)c1
90.5 to 92 °C	COC(=O)c1ccccc1-c1cc(-c2ccc(C(F)(F)F)cc2)no1
328 to 332 °C	O=c1c(-c2ccccc2)c[nH]nc1-c1ccccc1
174 to 176 °C	Cc1noc(NS(=O)(=O)c2c(C)sc3ccccc23)c1C
191 to 192 °C	COc1cc(C(=O)N2Cc3cccn3Cc3ccccc32)ccc1[N+](=O)[O-]
128 to 129 °C	CCC(=CC(CNC(=O)c1cccnc1C)=NO)C(C)[N+](=O)[O-] (configuration not stated)
188 °C	O=C1c2ccccc2C(O)(c2ccccc2)N1CCc1ccc(O)cc1 (configuration not stated)

SMILES	melting point
CN1C(=O)C(F)N=C(c2ccccc2F)c2cc(Cl)ccc21 (configuration not stated)	91 to 95 °C
N#Cc1ccc(N2CCCC2)c2ccccc12	109 to 110 °C
CC(/C=C/c1ccsc1-c1cc2c(cc1C)C(C)(C)CCC2(C)C)=C\C(=O)O	194 to 195 °C
CN1C2CCC1CC(c1n[nH]c3ccccc13)C2 (configuration not stated)	191 to 192 °C
O=C1c2c(ccc(F)c2Cl)-n2cnc(-c3noc(CCl)n3)c2[C@@H]2CCN12	214 to 217 °C
CCOC1CCC2(C)C(=CCC3C4CCC(=O)C4(C)CCC32)C1 (configuration not stated)	146 to 147 °C
